Values quoted from earlier work in patent US7135615B2, “Chromosome doubling method” (The Curators of the University of Missouri, priority 2001, dated 2006).

Test system: parthenogenetically induced haploid maize (Zea mays L.) seedlings
Details: cited from earlier work

For `COc1cc2c(c(OC)c1OC)-c1ccc(OC)c(=O)cc1[C@@H](NC(C)=O)CC2` [colchicine], the haploid recovery rates (colchicine treatments of haploid maize seedlings, reported) is given as 26–41%, the “recovery rates could drop as low as” value (colchicine treatments, affected by growing conditions) is given as 0.8–3.1% and the estimated selfing rate (previously used colchicine treatments) is given as 5–15%.
